# Measurements published in patent US4716238A, “Chromene derivatives useful as insecticides” (Alkaloida Vegyeszeti Gyar, priority 1983, dated 1987).
# Where two headings read alike, the source gives them in different places.
# Experiments:
# insects = settings: prior art; cited from earlier work
# cabbage butterfly = test: Cabbage butterfly test (sprayed cabbage seedlings, II. stage larvae); assay type: in vivo; settings: Pieris brassicae, 50 EC composition; for mortality at 0.01 % / survival at 0.01 %: concentration 0.01%; for mortality at 0.01 % / mortality at 0.1 %: read-out: Killing rate of larvae; for mortality at 0.1 % / survival at 0.1 %: concentration 0.1%
# Experimental: cabbage butterfly (Pieris brassicae)
# From the 50 EC of the test compound a dilution series is prepared with water and the host seedlings (cabbage) are sprayed with this composition until the spray runs down. The spray is allowed to dry whereupon 20 young larvae of the II. stage are placed on each treated plant and the seedlings are kept under so-called "long-day" illumination (18 hours of illumination and 6 hours of darkness). The nibbled plants are replaced by similarly sprayed plants if necessary. The killing rate of the insects, the growth rate of the larvae and the morphological deformations of the surviving nymphs and adults are registered.
# In the 50 EC compositions P1 and test compound 1 are used in a concentration of 0.01%, and the other active ingredients in a concentration of 0.1%.
# domestic fly = test: Domestic fly test (larvae on treated nutrient medium); assay type: in vivo; settings: Musca domestica
# Experimental: domestic fly (Musca domestica)
# The fly larvae are grown on a nutrient medium of the following composition: 2 ml of milk; 2 ml of water; 2 g of wheat bran; 0.1 ml of saturated alcoholic nipagin solution.
# The nutrient medium is filled into cylindrical glass vials (30×100 mm) and 25 fly larvae are raised in each vial. The test compound is dissolved in milk; the end concentration (related to milk) amounts to 0.1% which corresponds to 0.05% (related to the total nutrient medium). The solution of the active ingredient is admixed with the nutrient medium whereupon […] of domestic fly larvae of the I. stage are placed into each vial and the vials are closed with a hard cotton-wool stopper. The nymphs emerging from the larvae are collected in each vial, counted and kept in a petri dish (diameter 25 mm) until flies hatch from the nymphs. The hatched flies are counted.
# mustard beetle = test: Mustard beetle test; assay type: in vivo; settings: Phaedon cochleariae; concentration 1%; control 100%; read-out: Survival of adults
# Experimental: Two weeks old mustard seedlings are sprayed with a solution of 0.1 g of the test compound, 0.5 ml of dimethyl sulfoxide, and 10 μl of 50 EC composition in 10 ml of water. After the spray is dried, 20 mustard larvae of the II. stage are placed on each plant. The sprayed plants are changed every second day. The evaluation is based on the number of imagos hatching from the nymphs.
# [1] = test system: Caenorhabditis elegans adult nematodes; test: Nematocidal effect on Caenorhabditis elegans adult nematodes; assay type: in vivo; settings: for Size of descendant population: control normal; for mortality at 200 µg/mL / mortality at 400 µg/mL: Caenorhabditis elegans, read-out: Lethality
# Experimental: Caenorhabditis elegans 0.5 ml of the acetonous solution of the test compound is applied onto a NGM agar plate free from bacteria in a Petri dish. After the acetone was dried 25-30 young adults are placed on the plate. After 24 hours the surviving and killed […] are counted.
# cotton bug = test: Cotton bug test (topical application on larvae of II. stage); assay type: in vivo, Dysdercus fasciatus
# Experimental: cotton bug (Dysdercus fasciatus) A dilution series is prepared from the test compound with acetone, and 0.2 μl of each dilution is topically applied onto the back part of larvae of the II. stage of growth with the aid of a Hamiltion syringe. The active ingredient is absorbed through the cuticula. The animals are kept in a large glass and fed with cotton grains and water. After adult shedding the surviving insects are observed for eventual adultoid symptoms, the egg-reproduction and the development of the ovules is evaluated too. (Remark: in the cotton bug test 50 insects are used). In each Table the control value are disclosed too.
SMILES,"survival at 0.1 % (domestic fly; read-out: Survival, adult) [%]","survival at 0.1 % (domestic fly; read-out: Survival, nymph) [%]",mortality at 0.1 % (cabbage butterfly) [%],"survival at 0.1 % (cabbage butterfly; read-out: Survival, adult) [%]","survival at 0.1 % (cabbage butterfly; read-out: Survival, nymph) [%]",Size of descendant population ([1]; 200 μg/ml),Size of descendant population ([1]; 400 μg/ml),further results
"COc1cc2c(cc1OC(C)C)OC(C)(C)C=C2 [6-methoxy-7-isopropoxy-2,2-dimethyl-chromene]",–,–,–,–,–,–,–,activity relative to natural P1 and P2 (insects): considerably more active than natural P1 and P2
CCCOc1ccc2c(c1)OC(C)(C)C=C2 [Compound 1],–,–,–,–,–,–,–,"mortality at 0.01 % (cabbage butterfly): 52%; survival at 0.01 % (cabbage butterfly; read-out: Survival, adult): 39%; survival at 0.01 % (cabbage butterfly; read-out: Survival, nymph): 48%"
CC(C)COc1ccc2c(c1)OC(C)(C)C=C2 [Compound 3],28.2,100,–,–,–,–,–,–
CCOc1cc(C)c2c(c1)OC(C)(C)C=C2 [Compound 17],14.8,40,81,19,19,–,–,–
Cc1cc(OC(C)C)cc2c1C=CC(C)(C)O2 [Compound 19],27.6,50.9,–,–,–,–,–,–
CCC(C)Oc1cc(C)c2c(c1)OC(C)(C)C=C2 (centres unmarked) [Compound 20],12.5,25.4,11,14,19,–,–,–
Cc1cc(OCC(C)C)cc2c1C=CC(C)(C)O2 [Compound 21],25.5,45.7,100,–,–,–,–,survival at 1 % (mustard beetle): 27%
Cc1cc(OC2CCCC2)cc2c1C=CC(C)(C)O2 [Compound 22],31.8,52.7,100,–,–,–,–,–
C#CCOc1cc(C)c2c(c1)OC(C)(C)C=C2 [Compound 30],10.6,50.9,83,17,17,some descendants,no descendants,Remark ([1]; 200 μg/ml): paralysis; Remark ([1]; 400 μg/ml): paralysis; mortality at 200 µg/mL ([1]; 24 h): 20%; mortality at 400 µg/mL ([1]; 24 h): 30%
C=CCOc1cc2c(cc1OCC=C)OC(C)(C)C=C2 [Compound 58],–,–,–,–,–,some descendants,no descendants,mortality at 200 µg/mL ([1]; 24 h): 40%; mortality at 400 µg/mL ([1]; 24 h): 90%
CC(C)=CCOc1cc2c(cc1OCC=C(C)C)OC(C)(C)C=C2 [Compound 60],–,–,–,–,–,–,–,LD50 (cotton bug): 0.6 μg/insect
CCC(C)Oc1cc2c(cc1OC)C=CC(C)(C)O2 (centres unmarked) [Compound 66],–,–,–,–,–,–,–,AJH effect (cotton bug): 0.1 μg/insect; LD50 (cotton bug): 0.4 μg/insect
COc1cc2c(cc1OCC(C)C)OC(C)(C)C=C2 [Compound 67],–,–,–,–,–,–,–,LD50 (cotton bug): 0.4 μg/insect
CCOc1ccc2c(c1OC)OC(C)(C)C=C2 [Compound 87],4.2,5.4,76,24,24,reduced,no descendants,mortality at 200 µg/mL ([1]; 24 h): 40%; mortality at 400 µg/mL ([1]; 24 h): 100%
"CCCOc1ccc2c(c1OC)OC(C)(C)C=C2 [Compound 88, 7-n-propoxy-8-methoxy-2,2-dimethyl-2H-chromene]",0,12.7,100,–,–,–,–,survival at 1 % (mustard beetle): 45%
"CCC(C)Oc1ccc2c(c1OC)OC(C)(C)C=C2 (centres unmarked) [Compound 89, 7-sec.butoxy-8-methoxy-2,2-dimethyl-2H-chromene]",–,–,100,–,–,reduced,reduced,mortality at 200 µg/mL ([1]; 24 h): 25%; mortality at 400 µg/mL ([1]; 24 h): 85%
"COc1c(OC(C)C)ccc2c1OC(C)(C)C=C2 [Compound 90, 7-isopropoxy-8-methoxy-2,2-dimethyl-2H-chromene]",0,12,64,32,36,reduced,reduced,mortality at 200 µg/mL ([1]; 24 h): 60%; mortality at 400 µg/mL ([1]; 24 h): 73%
"COc1c(OCC(C)C)ccc2c1OC(C)(C)C=C2 [Compound 91, 7-isobutoxy-8-methoxy-2,2-dimethyl-2H-chromene]",–,–,93,7,7,–,–,–
CCCOc1cc(OC)c2c(c1)OC(C)(C)C=C2 [Compound 107],6.4,9.1,88,12,12,–,–,–
COc1cc(OC(C)C)cc2c1C=CC(C)(C)O2 [Compound 108],–,–,87,9,13,–,–,–
CCC(C)Oc1cc(OC)c2c(c1)OC(C)(C)C=C2 (centres unmarked) [Compound 109],–,–,100,–,–,–,–,–
"COc1cc(OCC(C)C)cc2c1C=CC(C)(C)O2 [Compound 110, 5-methoxy-7-isobutoxy-2,2-dimethyl-2H-chromene]",0,0,100,–,–,–,–,–
"COc1ccc2c(c1)OC(C)(C)C=C2 [Compound P1, reference compound]",–,–,–,–,–,reduced,no descendants,"mortality at 0.01 % (cabbage butterfly): 41%; survival at 0.01 % (cabbage butterfly; read-out: Survival, adult): 50%; survival at 0.01 % (cabbage butterfly; read-out: Survival, nymph): 59%; survival at 0.1 % (domestic fly; 0.1% related to milk (0.05% of total nutrient medium), control 100%, read-out: Survival, adult): 33.3%; survival at 0.1 % (domestic fly; 0.1% related to milk (0.05% of total nutrient medium), control 100%, read-out: Survival, nymph): 100%; mortality at 200 µg/mL ([1]; 200 μg/ml, 24 hours): 44%; mortality at 400 µg/mL ([1]; 400 μg/ml, 24 hours): 98%"
"COc1cc2c(cc1OC)OC(C)(C)C=C2 [Compound P2, reference compound]",–,–,–,–,–,no descendants,no descendants,"mortality at 200 µg/mL ([1]; 200 μg/ml, 24 hours): 100%; mortality at 400 µg/mL ([1]; 400 μg/ml, 24 hours): 100%; AJH effect (cotton bug): 1 μg/insect; LD50 (cotton bug): 0.6 μg/insect; Sterilizing effect (cotton bug): 10 μg/insect"
"CCOc1cc2c(cc1OC)C=CC(C)(C)O2 [Compound P3, 6-methoxy-7-ethoxy-2,2-dimethyl-2H-chromene, reference compound]",–,–,–,–,–,some descendants,no descendants,mortality at 200 µg/mL ([1]; 24 h): 70%; mortality at 400 µg/mL ([1]; 24 h): 90%; activity relative to natural P1 and P2 (insects): considerably more active than natural P1 and P2
